Four compounds from patent US9872495B2, “Peptoid oligomers, pharmaceutical compositions and methods of using the same” (priority 2009, dated 2018) can be followed below.

Series [1] relates to Escherichia coli ATCC 25922. The series is classed as cell-based. Conditions: ATCC 25922. The method, then: (§1) Antimicrobial activity was tested against the gram-negative strain Escherichia coli ATCC 25922, and […] strains Staphylococcus aureus ATCC 25923, and Bacillus subtilis ATCC 6633, according to the guidelines given in the document […]-A7 of the CLSI (Clinical and Laboratory Standards Institute; Clinical and Laboratory Standards Institute. Methods for Dilution Antimicrobial Susceptibility Tests for Bacteria That Grow Aerobically-Seventh Edition: Approved Standard CLSI document […]-A7. CLSI, Wayne, USA, 2006). This reference is incorporated herein in its entirety. Hemolytic activity was tested against fresh human erythrocytes.

The subject of series [2] is Staphylococcus aureus ATCC 25923. The format is cell-based. Conditions: ATCC 25923. The method, then:
as §1

Series [3] relates to Bacillus subtilis ATCC 6633. The format is cell-based. As to conditions: ATCC 6633. Here is the method:
as §1

The next series concerns fresh human erythrocytes. As to the kind of experiment: Hemolytic activity. The format is cell-based. As to conditions: red cells of human. Here is the method:
Typically, toxicity is evaluated by hemolytic concentration50 (HC50), which measures the concentration of antimicrobial agents at which 50% of the erythrocytes in the culture are lysed. Significant hemolysis, as evaluated by HC50, was detectable only for peptide gramicidin S (40 μg/mL). […] In order to test hemolytic activity of peptoid oligomers further, more stringent parameters were used. Instead of HC50, hemolytic concentration10 (HC10) was used to evaluate hemolytic activity of peptoids used in this study. HC10 represents the concentration of antimicrobial agents where 10% of erythrocytes are lysed. HC10 values were detectable for only four peptoid oligomers. […] Antimicrobial activity was tested against the gram-negative strain Escherichia coli ATCC 25922, and […] strains Staphylococcus aureus ATCC 25923, and Bacillus subtilis ATCC 6633, according to the guidelines given in the document […]-A7 of the CLSI (Clinical and Laboratory Standards Institute; Clinical and Laboratory Standards Institute. Methods for Dilution Antimicrobial Susceptibility Tests for Bacteria That Grow Aerobically-Seventh Edition: Approved Standard CLSI document […]-A7. CLSI, Wayne, USA, 2006). This reference is incorporated herein in its entirety. Hemolytic activity was tested against fresh human erythrocytes.

The test system of series [4] is MSSA (methicillin-sensitive) and MRSA (methicillin-resistant) S. aureus strains. The series is classed as cell-based, Staphylococcus aureus. Here is the method: Experimental Design: • Twelve strains of MSSA (methicillin-sensitive) and MRSA (methicillin-resistant) S. aureus were cross-tested against two antibacterial peptoid oligomers.
[drawing 50] • Testing was accomplished with 96-well plates wherein each well contained LB media, the S. aureus strain, and a solution of the compound in ethanol at a specific concentration. • A twofold serial dilution of each compound was accomplished with pure ethanol starting from 0.5 mg/mL to 0.0039 mg/mL. • To determine the appropriate concentration of the bacterial strain for each well, the previously grown (overnight in LB media) cultures were diluted with LB media until the optical density at 595 nm (OD595˜OD600) was ˜0.005. • Each experiment was conducted in triplicate, e.g. testing of “Newman” S. aureus strain against a specific concentration of C(NapNdp)3 was replicated in three wells. • Control experiments were also conducted in absence of the compound, i.e. the plates contained only the bacterial strain, LB media, and ethanol. • The plates were incubated and gently shaken overnight (20 hours) at 37° C., and OD595 was read before (t=0) and after (t=20) incubation.
Specifically, along a dilution sequence, the well with the least OD595 after subtraction was determined to be the MIC.

Converted amounts (≈) assume the structure as drawn. Square brackets hold non-standard residues; d marks the D form. Peptide text beside a SMILES is read from it. Gly(N-(CH2)6NH2) = NCCCCCCNCC(=O)O; Nphe = O=C(O)CNCc1ccccc1

For the compound `CC(=O)N(CCCN)CC(=O)N(CC(=O)N(CCCN)CC(=O)N(CC(=O)N(CCCN)CC(=O)N(CC(N)=O)CC(c1ccccc1)c1ccccc1)CC(c1ccccc1)c1ccccc1)CC(c1ccccc1)c1ccccc1` [Compound 4, Ac(NapNdp)3], the “MIC E. coli” value in series [1] worked out at 15.6 µg/mL (≈ 14 µM). Moreover, in series [2], the “MIC S. aureus” value stood at 15.6 µg/mL (≈ 14 µM). In addition, the “MIC B. sub” value in series [3] was 1 µg/mL (≈ 0.898 µM). In addition, in the series on fresh human erythrocytes, the “HC10 (concentration where 10% hemolysis is observed)” value is more than 62.5 µg/mL and the “HC50 (concentration where 50% hemolysis is observed)” value is more than 250 µg/mL. The “activity across strains of Staphylococcus aureus (in words)” value in series [4] (clinical, community-acquired, and hospital strains, methicillin-sensitive and methicillin-resistant) is reported as “active”. Moreover, the “MIC against Staphylococcus aureus strain” value in series [4] (methicillin-sensitive) and (methicillin-resistant) strains) is 15.6 µg/mL (≈ 14 µM).

For the compound `CC(=O)N(CCCN)CC(=O)N(CC(=O)N(CCCN)CC(=O)N(CC(=O)N(CCCN)CC(=O)N(CC(N)=O)Cc1ccc2ccccc2c1)Cc1ccc2ccccc2c1)Cc1ccc2ccccc2c1` [Compound 5, Ac(NapNnm)3], in series [1], the “MIC E. coli” value was 62.5 µg/mL (≈ 62.9 µM). Further, the “MIC S. aureus” value in series [2] was 125 µg/mL (≈ 126 µM). Also, the “MIC B. sub” value in series [3] worked out at 2 µg/mL (≈ 2.01 µM). In addition, in the series with fresh human erythrocytes, the “HC10 (concentration where 10% hemolysis is observed)” value is more than 250 µg/mL and the “HC50 (concentration where 50% hemolysis is observed)” value is more than 250 µg/mL.

`CC(=O)N(CCCCCCN)CC(=O)N(CC(=O)N(CCCCCCN)CC(=O)N(CC(=O)N(CCCCCCN)CC(=O)N(CC(N)=O)Cc1ccccc1)Cc1ccccc1)Cc1ccccc1` [Compound 3, Ac(NahNpm)3] (Ac-[Gly(N-(CH2)6NH2)][Nphe][Gly(N-(CH2)6NH2)][Nphe][Gly(N-(CH2)6NH2)][Nphe]-NH2): the “MIC E. coli” value in series [1] is more than 500 µg/mL. Also, the “MIC S. aureus” value in series [2] was more than 500 µg/mL. Moreover, the “MIC B. sub” value in series [3] was more than 500 µg/mL. Also, in the series with fresh human erythrocytes, the “HC10 (concentration where 10% hemolysis is observed)” value is more than 250 µg/mL and the “HC50 (concentration where 50% hemolysis is observed)” value is more than 250 µg/mL.

With `NCCCN1CC(=O)N(CC(c2ccccc2)c2ccccc2)CC(=O)N(CCCN)CC(=O)N(CC(c2ccccc2)c2ccccc2)CC(=O)N(CCCN)CC(=O)N(CC(c2ccccc2)c2ccccc2)CC1=O` [Compound 20, C(NapNdp)3], the “MIC E. coli” value in series [1] came to 15.6 µg/mL (≈ 14.8 µM). The “MIC S. aureus” value in series [2] stood at 7.8 µg/mL (≈ 7.4 µM). The “MIC B. sub” value in series [3] was 1 µg/mL (≈ 0.948 µM). For the same compound, in the series on fresh human erythrocytes, the “HC10 (concentration where 10% hemolysis is observed)” value was more than 31.3 µg/mL and the “HC50 (concentration where 50% hemolysis is observed)” value was more than 250 µg/mL.
